Laboratory results from patent publication US11643439B2, “Multi-target compound with anticoagulation and antiplatelet activity, preparation method therefor, and use thereof” (SHAANXI MICOT TECHNOLOGY LIMITED COMPANY, priority 2015, dated 2023).
Marks after values point to notes of the source that are not given here.

Experiments:
[1] = test system: FeCl3-induced common carotid arterial thrombosis; test: FeCl3-induced common carotid arterial thrombosis in rats; format: in vivo, rat
Protocol: (§1) 160 Rats were randomly divided into groups, 5 to 10 rats per group.
(§2) According to the body weight in kilograms of the rats, the first dose of a drug was dissolved in 2 mL of physiological saline for single bolus injection. The maintaining dose of drug was dissolved in 9 ml of physiological saline, and placed in a double-channel micro-injection pump, which was dripped off within 90 minutes at a dripping speed of 0.1 ml/min. The sham operation group was administered with the same volume of physiological saline.
(§3) The rats were fasted with free access to water overnight before the experiment.
After administration at a load dosage maintenance for 30 minutes, a filter paper with a 3 mm diameter and immersed with 35% FeCl3 solution was applied below the common carotid artery, below which a small piece of a plastic film (2.5 cm×2.0 cm) was placed to protect surrounding tissues. The body temperature was detected with a temperature probe in the distal end of the artery, and the time required from the beginning of stimulation to the point when the temperature decreased by 2.5 degrees was examined as the vascular occlusion time.
The time from the point when FeCl3 was placed to the point when the temperature of the artery indicated a decrease of 2.5° C. was the vascular occlusion time, which reflected the state of thrombus formation.

[2] = test system: blood coagulation function; test: PT in rats, intravenous maintenance administration; format: in vivo, rat
Protocol: as §1, §2, §3
The blood samples were taken before administration, administration for 60 minutes, and before termination of administration, respectively, to determine their activated partial thromboplastin time (APTT) and prothrombin time (PT). The blood samples were centrifuged at 3510 rpm for 8 minutes to obtain platelet poor plasma (PPP). Reagent reconstruction and preservation were performed according to the operation requirements of the kit. Immediately after each blood sample was placed into a test cup and then PT and APTT reagents were added, the test was started. After the test was completed, results were recorded.
5.1 Determination of blood coagulation function: The blood samples were taken 0 min before administration, administration for 60 minutes, and termination of administration, respectively, and then determined using a platelet-aggregation coagulation factor analyzer for the blood coagulation functions (PT. APTT) and ACT.

[3] = test system: blood coagulation function; test: PT in rabbits, single intravenous administration; format: in vivo, rabbit
Protocol: (§4) 1. Grouping and administration: 48 Rabbits were randomly divided into 6 groups, 8 rabbits per group. 1) Sham operation group (NS): Intravenous injection of the same volume of physiological saline; 2) positive control bivalirudin group (6 mg/kg); 3) positive control enoxaparin group (200 U/kg); 4) Low dose group of polypeptide 2 (3.0 mg/kg); 5) Medium dose group of polypeptide 2 (6.0 mg/kg); 6) High dose group of polypeptide 2 (12.0 mg/kg). Polypeptide 2 was administered by single intravenous administration. According to the body weight in kilograms of the rabbits, the sample was dissolved in 2 mL of physiological saline for single bolus injection. The sham operation group was administered with the same volume of physiological saline.
(§5) 3.2 Determination of blood coagulation function: Blood samples were taken and the blood function (PT, TT, APTT) was determined at 0 min before administration, at points of 5 min and 15 min after administration, using a platelet-aggregation coagulation factor analyzer. Blood samples were centrifuged at 3510 rpm for 8 min to obtain platelet poor plasma (PPP). Reagent reconstruction and preservation were performed according to the operation requirements of the kit. Immediately after each blood sample was placed into a test cup and then added with PT. TT and APTT reagents, the test was started. After the test was completed, results were recorded.

[4] = test system: blood coagulation function; test: TT in rabbits, single intravenous administration; format: in vivo, rabbit
Protocol: as §4, §5

[5] = single iv 200 (U/kg), Administration for 5 min
[6] = single iv 200 (U/kg), Administration for 15 min
[7] = single iv 200 (U/kg), Before administration
[8] = iv 0.08 + 0.325 (mg/kg + mg/kg/h)
[9] = iv 0.17 + 0.65 (mg/kg + mg/kg/h)
[10] = iv 0.35 + 1.3 (mg/kg + mg/kg/h)
[11] = single iv 6.0 mg/kg, Administration 5 min
[12] = single iv 6.0 mg/kg, Administration 15 min
[13] = single iv 6.0 mg/kg, Administration for 5 min
[14] = single iv 6.0 mg/kg, Administration for 15 min
[15] = single iv 6.0 mg/kg, Before administration
[16] = iv 0.041 + 0.125 (mg/kg + mg/kg/h)
[17] = iv 0.125 + 0.375 (mg/kg + mg/kg/h)
[18] = iv 0.25 + 0.75 (mg/kg + mg/kg/h)
[19] = iv 0.5 + 1.25 (mg/kg + mg/kg/h)
[20] = iv 1.5 + 3.75 (mg/kg + mg/kg/h)
[21] = single iv 3.0 mg/kg, Before administration
[22] = single iv 12.0 mg/kg, Before administration

Enoxaparin
Common carotid arterial thrombosis Fold of prolongation ([1]; iv 30 + 45 u (U/kg+U/kg/h)): 1.93 ± 0.52 | Common carotid arterial thrombosis OT ([1]; iv 30 + 45 u (U/kg+U/kg/h)): 48.17 ± 13.12 min | Common carotid arterial thrombosis Fold of prolongation ([1]; iv 30 + 120 u (U/kg+U/kg/h)): 1.66 ± 0.27 | Common carotid arterial thrombosis OT ([1]; iv 30 + 120 u (U/kg+U/kg/h)): 41.4 ± 6.68 min | Common carotid arterial thrombosis Fold of prolongation ([1]; iv 60 + 60 u (U/kg+U/kg/h)): 2.23 ± 0.29 | Common carotid arterial thrombosis OT ([1]; iv 60 + 60 u (U/kg+U/kg/h)): 55.75 ± 7.23 min | Common carotid arterial thrombosis Fold of prolongation ([1]; iv 60 + 240 u (U/kg+U/kg/h)): 1.99 ± 0.20 | Common carotid arterial thrombosis OT ([1]; iv 60 + 240 u (U/kg+U/kg/h)): 49.75 ± 5.04 min | Common carotid arterial thrombosis Fold of prolongation ([1]; iv 90 + 120 u (U/kg+U/kg/h)): 1.95 ± 0.46 | Common carotid arterial thrombosis OT ([1]; iv 90 + 120 u (U/kg+U/kg/h)): 48.83 ± 11.58 min | PT Before administration ([2]; iv 30 + 45 u (U/kg+U/kg/h)): 10.23 ± 1.19 | PT Fold of change ([2]; iv 30 + 45 u (U/kg+U/kg/h)): 1.24 ± 0.14 | PT administration for 60 minutes ([2]; iv 30 + 45 u (U/kg+U/kg/h)): 12.70 ± 2.49 | PT Before administration ([2]; iv 30 + 120 u (U/kg+U/kg/h)): 9.93 ± 1.77 | PT Fold of change ([2]; iv 30 + 120 u (U/kg+U/kg/h)): 1.67 ± 0.42 | PT administration for 60 minutes ([2]; iv 30 + 120 u (U/kg+U/kg/h)): 16.17 ± 1.86 | PT Before administration ([2]; iv 60 + 60 u (U/kg+U/kg/h)): 9.53 ± 1.96 | PT Fold of change ([2]; iv 60 + 60 u (U/kg+U/kg/h)): 4.10 ± 5.56 | PT administration for 60 minutes ([2]; iv 60 + 60 u (U/kg+U/kg/h)): 31.39 ± 35.50 | PT Before administration ([2]; iv 60 + 240 u (U/kg+U/kg/h)): 10.28 ± 0.98 | PT Fold of change ([2]; iv 60 + 240 u (U/kg+U/kg/h)): 1.78 ± 0.30 | PT administration for 60 minutes ([2]; iv 60 + 240 u (U/kg+U/kg/h)): 18.21 ± 2.70 | PT Before administration ([2]; iv 90 + 120 u (U/kg+U/kg/h)): 9.63 ± 1.58 | PT Fold of change ([2]; iv 90 + 120 u (U/kg+U/kg/h)): 1.57 ± 0.21 | PT administration for 60 minutes ([2]; iv 90 + 120 u (U/kg+U/kg/h)): 14.88 ± 1.67 | PT fold of prolongation ([3]; single iv 200 (U/kg), Administration 5 min): 1.2 ± 0.1 | PT fold of prolongation ([3]; single iv 200 (U/kg), Administration 15 min): 1.2 ± 0.1 | PT [3, 5]: 6.7 ± 1.1 S | PT [3, 6]: 6.7 ± 0.8 S | PT [3, 7]: 5.8 ± 0.2 S | TT [4, 5]: >180 s | TT [4, 6]: >180 s | TT [4, 7]: 20.7 ± 4.2 S

Bivalirudin: Bivalirudin for Injection, Xi'an Xintong Pharmaceutical Research Co., Ltd.; positive control thrombin inhibitor
Common carotid arterial thrombosis Fold of prolongation [1, 8]: 1.79 ± 0.06 | Common carotid arterial thrombosis OT [1, 8]: 44.75 ± 1.53 min | Common carotid arterial thrombosis Fold of prolongation [1, 9]: 2.24 ± 0.24 | Common carotid arterial thrombosis OT [1, 9]: 56.00 ± 6.03 min | Common carotid arterial thrombosis Fold of prolongation [1, 10]: 2.23 ± 0.33 | Common carotid arterial thrombosis OT [1, 10]: 55.63 ± 8.21 min | Common carotid arterial thrombosis Fold of prolongation ([1]; iv 0.5 + 2 (mg/kg + mg/kg/h)): 2.32 ± 0.23 | Common carotid arterial thrombosis OT ([1]; iv 0.5 + 2 (mg/kg + mg/kg/h)): 58.00 ± 5.77 min | PT Before administration [2, 8]: 10.42 ± 1.16 | PT Fold of change [2, 8]: 1.82 ± 0.24 | PT administration for 60 minutes [2, 8]: 18.95 ± 3.36 | PT Before administration [2, 9]: 11.16 ± 1.28 | PT Fold of change [2, 9]: 1.99 ± 0.78 | PT administration for 60 minutes [2, 9]: 21.85 ± 7.38 | PT Before administration [2, 10]: 11.73 ± 1.48 | PT Fold of change [2, 10]: 3.54 ± 1.45 | PT administration for 60 minutes [2, 10]: 42.58 ± 21.94 | PT Before administration ([2]; iv 0.5 + 2 (mg/kg + mg/kg/h)): 7.87 ± 1.93 | PT Fold of change ([2]; iv 0.5 + 2 (mg/kg + mg/kg/h)): 4.46 ± 1.47 | PT administration for 60 minutes ([2]; iv 0.5 + 2 (mg/kg + mg/kg/h)): 39.13 ± 7.30 | PT fold of prolongation [3, 11]: 3.0 ± 0.5 | PT fold of prolongation [3, 12]: 1.6 ± 0.2 | PT [3, 13]: 18.8 ± 1.1 S | PT [3, 14]: 10.2 ± 0.7 S | PT [3, 15]: 6.4 ± 0.2 S | TT [4, 13]: >180 s | TT [4, 14]: >180 s | TT [4, 15]: 22.4 ± 5.2 S

D-Phe Pro Arg Pro Gly Gly Gly Gly Asn Gly Asp Phe Glu Glu Ile Pro Glu Glu Tyr Leu Glu Ala Ala Ala Lys Cys Har Gly Asp Trp Pro Cys [Polypeptide 2]
Common carotid arterial thrombosis OT [1, 16]: 20.20 ± 10.00 min | Common carotid arterial thrombosis Fold of prolongation [1, 17]: 27.99 | Common carotid arterial thrombosis OT [1, 17]: 16.23 ± 6.76 min | Common carotid arterial thrombosis Fold of prolongation [1, 18]: 36.85 | Common carotid arterial thrombosis OT [1, 18]: 14.23 ± 4.82 min | Common carotid arterial thrombosis OT [1, 19]: 9.25 ± 4.86 min | Common carotid arterial thrombosis Fold of prolongation ([1]; iv 1 + 2.5 (mg/kg + mg/kg/h)): 56.03 | Common carotid arterial thrombosis OT ([1]; iv 1 + 2.5 (mg/kg + mg/kg/h)): 9.91 ± 6.20 min | Common carotid arterial thrombosis OT [1, 20]: 7.13 ± 3.46 min | PT Before administration [2, 16]: 10.74 ± 3.97 | PT Fold of change [2, 16]: 1.95 ± 1.27 | PT administration for 60 minutes [2, 16]: 18.95 ± 8.65 | PT Before administration [2, 17]: 11.21 ± 1.62 | PT Fold of change [2, 17]: 1.70 ± 0.34 | PT administration for 60 minutes [2, 17]: 19.00 ± 4.39 | PT Before administration [2, 18]: 11.19 ± 1.06 | PT Fold of change [2, 18]: 1.87 ± 0.50 | PT administration for 60 minutes [2, 18]: 20.82 ± 5.66 | PT Before administration [2, 19]: 10.58 ± 1.48 | PT Fold of change [2, 19]: 2.53 ± 0.73 | PT Before administration ([2]; iv 1 + 2.5 (mg/kg + mg/kg/h)): 10.53 ± 1.29 | PT Fold of change ([2]; iv 1 + 2.5 (mg/kg + mg/kg/h)): 5.57 ± 2.74 | PT administration for 60 minutes ([2]; iv 1 + 2.5 (mg/kg + mg/kg/h)): 56.65 ± 23.16 | PT Before administration [2, 20]: 11.98 ± 1.02 | PT Fold of change [2, 20]: 3.91 ± 1.89 | PT administration for 60 minutes [2, 20]: 46.64 ± 23.46 | PT fold of prolongation ([3]; single iv 3.0 mg/kg, Administration 5 min): 1.5 ± 0.4 | PT fold of prolongation ([3]; single iv 3.0 mg/kg, Administration 15 min): 1.2 ± 0.2 | PT ([3]; single iv 3.0 mg/kg, Administration for 5 min): 8.9 ± 1.2 S | PT ([3]; single iv 3.0 mg/kg, Administration for 15 min): 7.0 ± 0.8 S | PT [3, 21]: 6.0 ± 0.3 S | PT fold of prolongation [3, 11]: 2.0 ± 0.4 | PT fold of prolongation [3, 12]: 1.4 ± 0.3 | PT [3, 13]: 12.9 ± 1.1*^#¥ S | PT [3, 14]: 8.9 ± 0.7 S | PT [3, 15]: 6.3 ± 0.2 S | PT fold of prolongation ([3]; single iv 12.0 mg/kg, Administration 5 min): 3.0 ± 0.8 | PT fold of prolongation ([3]; single iv 12.0 mg/kg, Administration 15 min): 2.0 ± 0.6 | PT ([3]; single iv 12.0 mg/kg, Administration for 5 min): 19.2 ± 1.1 *^¥& S | PT ([3]; single iv 12.0 mg/kg, Administration for 15 min): 12.5 ± 0.7 *^¥&@ S | PT [3, 22]: 6.5 ± 0.2 S | TT [4, 21]: 21.0 ± 2.6 S | TT [4, 15]: 22.3 ± 1.9 S | TT [4, 22]: 21.8 ± 6.4 S
